{
  "source": "paper PMC6429710",
  "about": "“Structure–activity relationships in a series of antiplasmodial thieno[2,3-b]pyridines” (Malaria Journal, 2019)",
  "key": {"PfGSK-3": {"molecular_target": "T1, PfGSK-3 (Plasmodium falciparum, UniProt O77344)", "T1 construct": "6xHis; made in house; host or cells: Escherichia coli C41", "T1 sequence (O77344 1-440)": "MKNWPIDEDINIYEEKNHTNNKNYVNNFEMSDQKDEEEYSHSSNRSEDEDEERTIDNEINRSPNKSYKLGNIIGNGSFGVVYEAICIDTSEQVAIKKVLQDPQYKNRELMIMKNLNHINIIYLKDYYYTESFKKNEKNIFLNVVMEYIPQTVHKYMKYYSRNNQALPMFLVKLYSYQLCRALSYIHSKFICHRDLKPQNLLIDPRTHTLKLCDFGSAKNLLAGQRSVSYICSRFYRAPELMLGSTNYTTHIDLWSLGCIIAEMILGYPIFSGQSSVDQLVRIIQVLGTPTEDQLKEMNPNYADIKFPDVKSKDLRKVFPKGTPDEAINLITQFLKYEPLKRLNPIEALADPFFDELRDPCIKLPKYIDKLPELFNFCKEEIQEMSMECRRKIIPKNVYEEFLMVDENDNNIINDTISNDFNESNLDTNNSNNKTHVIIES", "type": "biochemical", "settings": "15 µM ATP; mean of two determinations, range in brackets; read-out: IC50 [µM], PfGSK-3 (radiometric)", "experimental": "Recombinant GST-PfGSK-His was expressed in Rosetta 2 (DE3) cells and purified on cobalt affinity resin as described previously. Recombinant PfGSK-3 ([…]) was assayed with 48 µM GS-1 peptide as a substrate, in 25 mM Tris–HCl pH 7.5, 10 mM MgCl2, 1 mM EGTA, 1 mM EDTA, 0.5 mg/mL BSA, 5 mM DTT, 2 µg/mL heparin, in the presence of 15 µM [γ-^32P] ATP (3000 Ci/mmol; 1 mCi/mL) (Perkin-Elmer, USA) in a final volume of 25 µL. After 30 min incubation at 30 °C, 8 µL aliquots were spotted onto 1 × 1 cm pieces of P81 phosphocellulose paper (Reaction Biology, Malvern, PA, USA) and 20 s later, the filters were washed five times (for at least 5 min each time) in a solution of 10 mL phosphoric acid/L water. Filters were rinsed in acetone and the dried filters and radioactivity was measured by Cherenkov counting. Blank values were subtracted and activities were expressed in percentage of the maximal activity, i.e. in the absence of inhibitors. Controls were performed with appropriate dilutions of dimethylsulfoxide."}, "HsGSK-3": {"molecular_target": "HsGSK-3 (Homo sapiens, UniProt P49841)", "sequence (P49841 whole entry)": "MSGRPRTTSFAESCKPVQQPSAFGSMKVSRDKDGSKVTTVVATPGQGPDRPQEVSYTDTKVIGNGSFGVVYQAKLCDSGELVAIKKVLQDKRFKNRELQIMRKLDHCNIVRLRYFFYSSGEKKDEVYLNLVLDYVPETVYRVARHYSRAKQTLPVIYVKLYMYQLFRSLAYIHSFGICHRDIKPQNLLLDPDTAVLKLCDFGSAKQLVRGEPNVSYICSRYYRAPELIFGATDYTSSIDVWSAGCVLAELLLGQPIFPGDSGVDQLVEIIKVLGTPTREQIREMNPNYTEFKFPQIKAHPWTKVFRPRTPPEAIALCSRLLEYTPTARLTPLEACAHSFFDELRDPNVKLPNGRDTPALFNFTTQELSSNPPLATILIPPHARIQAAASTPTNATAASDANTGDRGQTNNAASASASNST", "assay": "Kinase-Glo Plus assay for inhibition of HsGSK-3", "type": "biochemical", "settings": "6 µM ATP; mean of three determinations, range in brackets", "experimental": "Kinase reaction mix was transferred to a solid white 384 well plate (NUNC, Thermo Scientific) and kinase reaction was stopped by adding 5 μL RT Kinase-Glo reagent. After 10 min luminescence was measured in an EnVision multilabel plate reader (Perkin Elmer, integration time 0.5 s/well). […] All samples were normalized to a negative control (reaction without kinase). Data points were plotted into Graphpad Prism, normalized to a DMSO control and IC50 values were calculated using nonlinear regression."}, "[1]": {"system": "asexual erythrocytic stages of transgenic NF54-luc P. falciparum", "assay": "Luciferase-based viability screening for antiplasmodial activity", "type": "cell-based, Plasmodium falciparum", "settings": "48 h", "experimental": "For the luciferase-based viability assays, asexual erythrocytic stages of transgenic NF54-luc P. falciparum were used. These parasites constitutively express high luciferase levels. The parasites were cultured as described previously. Parasite cultures with parasitaemia of 0.5–1% were dispensed in triplicate into white 96-well flat-bottom plates (each well contains 250 µL) (NUNC, Roskilde, Denmark) and incubated in the presence of 3 µM test compounds for 48 h (37 °C, 90% N2, 5% CO2, and 5% O2). 0.01% DMSO was included in the untreated infected RBC cultures as negative control, since the compounds stock initially was diluted in DMSO and each treatment well also contained 0.01% DMSO. Subsequently, 100 µL RPMI1640 media was removed from each well and a 100 µL volume of the Bright-Glo® substrate solution was added to each well. The resultant cleavage product of the reaction, light, was measured using a […] luminometer (Thermo), to ascertain viable parasites. Untreated cultures were used as negative controls and to calculate the inhibition rate (0% inhibition of parasite growth). Experiments were performed in triplicate and were repeated as a whole at least twice. Blasticidin (Sigma-Aldrich, St. Louis, MO, USA), used for selection of transfected parasites, was included as a positive control on each plate and gave > 90% inhibition of parasite growth at concentration 2 µg/mL. […] For active compounds IC50 values were determined from dose–response curves. Calculation of parasite growth inhibition, of the IC50 values and statistical analysis were carried out using GraphPad Prism Version 6.0b (GraphPad Software, Inc. San Diego, CA)."}, "[2]": {"assay": "Kinetic solubility by laser nephelometry", "type": "physicochemical", "settings": "aqueous phosphate buffer pH 7.4, 1% DMSO, 25 °C, mean ± standard deviation", "experimental": "Kinetic solubility indicates the solubility of the most rapidly precipitating form. Kinetic solubilities of 1 and 4h were determined by laser nephelometry using the […] nephelometer (BMG LabTech, Ortenberg, Germany) and F-bottom transparent 96-well plates. The instrument uses red laser light (635 nm, 80% intensity), which passes through the 96-well plate and which is scattered by turbid suspensions. Each compound was measured six times at 25 °C by preparing three independent stock solutions in concentrations of 5 to 10 mM in DMSO. From each stock solution two independent dilution series were prepared. Based on preliminary experiments, dilution concentrations were chosen such that at least five to six concentrations below and above the expected point of precipitation were recorded. To the 96-well plate containing 198 μL aqueous phosphate buffer at pH 7.4, 2 μL of each dilution sample in DMSO was added and shaken for 10 s. at 700 rpm (double orbital). […] The pH was adjusted by adding sulfuric acid. First, the plates were scanned without content to quantify the background, which was later subtracted from the obtained values of each individual well. As blank, 2 μL of neat DMSO was added to the phosphate buffer. Close to the point of precipitation, particle concentration can be assumed to be proportional to the intensity of scattered light. […]"}},
  "data": [
    {"compound": "CN(C)CCN(C)c1ccc(-c2c(C#N)c(N)nc3sc(C(=O)c4cccc(Cl)c4)c(N)c23)c(Cl)c1", "note": "[4h]", "values": [
      {"measurement": "IC50", "setting": "PfGSK-3", "value": 0.184, "unit": "µM"},
      {"measurement": "IC50", "setting": "HsGSK-3", "value": 40.2, "unit": "µM"},
      {"measurement": "% inhibition ± SD, PfNF54-Luc at 3 µM", "setting": "[1]; 3 µM test compound, luciferase readout, ± SD", "value": "99.9 ± 0.1", "unit": "%"},
      {"measurement": "IC50", "setting": "[1]; from dose-response curves, read-out: IC50 [µM], PfNF54-Luc", "value": 1.2, "unit": "µM"},
      {"measurement": "S0 pH 7.4, exp (kinetic solubility)", "setting": "[2]", "value": "4.8 ± 0.9", "unit": "µM"}
    ]}
  ]
}
